Experimental data published in patent US11365227B2, “Peptide and pharmaceutical compositions of same for use as an antimicrobial and in cancer treatment” (UNIVERSITAT DE VALÈNCIA, priority 2017, dated 2022).
Where no end group is shown, it is not given here.

How the values were obtained:
[1] = test system: MDA-MB-231 triple-negative breast cancer cells; experiment: MTS cell viability, combined treatments of PaSK with chemotherapeutic agents
S. aureus [2] = experiment: Antimicrobial activity by flow cytometry (SYBR Green / propidium iodide); assay type: cell-based, Staphylococcus aureus subsp. aureus CECT 4013; details: 25 μg/mL, 8 h at 37° C., 2 replicates
Protocol: The strain used was CECT 4013 of S. aureus subsp. aureus, publicly accessible deposited in the Spanish Type Culture Collection (CECT).
Starting from cells of S. aureus cultured overnight in a liquid medium LB (peptone 1%, yeast extract 0.5% and NaCl 1%) at 37° C. with stirring, aliquots were obtained in a new liquid medium and allowed to grow until reaching an optical density at 600 nm (OD600) of 0.5, optimum for detection in the flow cytometer. Aliquots were prepared with a concentration of 5×10^6 cfu/100 μL of S. aureus to which were added 10, 15, 20 and 25 μg/mL of PaSK, 25 μg/mL of TcDef3-pep and H2O (negative control), solvent used to dilute the peptides. The mixtures were incubated at 37° C. for 8 h and marked with the fluorochromes SYBR Green (Invitrogen) (25 μL of a SYBR Green 25× solution in H2O) that stains all the cells and propidium iodide (Sigma) (10 μL of propidium iodide 1 mg/mL) that stains dead cells. Finally, the cell death caused by the peptides was analysed by flow cytometry with the equipment BD Facs Verse (Becton Dickinson), from the cell culture and flow cytometry section of the Central Services for Research Support of the University of Valencia. The experiments were performed in duplicate.
The flow cytometer forces cells to pass one by one through a needle, creating a thin line of liquid and detecting how the laser beam (argon emission laser at 488 nm, in the equipment used) interacts with the cells, depending on how the incident light is deviated and the fluorescence emitted by the excited fluorochromes. The results are presented as graphs obtained with the analysis program BD Facs suite v1.0.5.3841 (Becton Dickinson). […] Then, a second graph is obtained with the parameters SSC and FITC (fluorescence parameter indicating the cells containing SYBR Green), to differentiate the cells from the other particles that may be present in the sample. Lastly, a third graph is obtained with the fluorescence parameters FITC and PerCPCy5.5 (indicating the cells stained with propidium iodide) to differentiate the cells that have been stained only by SYBR Green from those stained with propidium iodide, which will be those that have died.
The antimicrobial activity of the peptide PaSK was determined by flow cytometry. […] Therefore, the use of these two fluorochromes provides a method for determining viable cells, quantifying the loss of cell viability from the increase in propidium iodide inside the dead cells.
After incubating the cells of strain CECT 4013 of S. aureus with 25 μg/mL of the peptides TcDef3-pep and PaSK, the percentage of dead cells was determined. […] FIGS. 1A-1D show the graphs corresponding to the fluorescence obtained in the windows of the flow cytometer.

S. aureus [3] = experiment: Scanning electron microscopy of S. aureus cells treated with peptides; assay type: cell-based, Staphylococcus aureus subsp. aureus CECT 4013; details: 25 μg/mL, 1 h
Protocol: The cells were prepared in the same way as for the flow cytometry technique and the same aliquots and treatments were performed. The samples were incubated at 37° C. for 1 h. The bacteria were fixed with Karnosky (2.5% paraformaldehyde and 0.5 glutaraldehyde) for 2 h at 4° C. After washing (centrifuging and eliminating the supernatant) they were fixed with 2% osmium tetraoxide for another 2 h, washed again and filtered with a 0.2 μm filter. The cells were then dehydrated in graded ethanol series (30°, 50°, 70°, 90°, 100°) for 10 min in each gradation. To carry out the critical point drying, the ethanol was replaced with liquid CO2, the temperature was increased to accelerate evaporation and the pressure was lowered slowly to conserve the exact shape of the bacteria. Finally, shading with gold palladium was performed for 2 min observing the results in the equipment FEG-SEM HITACHI S4800 at 10 Kv.
Scanning electron microscopy provides high-resolution images used to view the damage caused by the peptides to the bacterial membrane. The cells of S. aureus CECT 4013 were treated with the peptides hBD-3, TcDef3-pep and PaSK at a concentration of 25 μg/mL, for 1 h, and analysed using scanning electron microscopy (FIG. 4). In cells without treatment the circular and uniform form typical of S. aureus was observed, with the intact membrane, while in treated cells various types of morphological alterations can be seen. […] With this treatment small circular structures are observed, smaller than the cells of S. aureus.

S. aureus [4] = details: 10 μg/mL; Contreras et al., 2015; cited from earlier work
S. aureus [5] = experiment: Transmission electron microscopy of S. aureus cells treated with peptides; assay type: cell-based, Staphylococcus aureus subsp. aureus CECT 4013; details: 25 μg/mL, 1 h
Protocol: The samples were prepared in the same way as for scanning electron microscopy, except for the series of graded dehydration with ethanol, in which only the 90° grade was reached. Then the samples were included in resin in 4 steps: ethanol 96°—resin LR-White 2:1 (20 h), ethanol 100°—resin 2:1 (20 h), ethanol 100°—resin 1:2 (20 h) and 100% resin (24 h at 60° C.). After the samples were included in the resin the block was prepared for ultrathin cuts of 60 nm in the equipment Leica UC6 Ultracut Microtome.
Transmission electron microscopy provides high-resolution images which were used to view the ultrastructural damage caused by the peptides inside the bacteria. The cells of S. aureus CECT 4013 were treated with the peptides hBD-3, TcDef3-pep and PaSK at a concentration of 25 μg/mL, for 1 h, and analysed using transmission electron microscopy (FIG. 6). In cells without treatment, an intact cytoplasm membrane (3) and peptidoglycane wall (2) were observed, typical of a Gram+ bacteria as S. aureus, as well as a division septum (1) without malformations, while in treated cells different types of alterations were observed. […] Small size circular structures (9) are observed. These structures show a different electrodensity from cells and lack a cytoplasm membrane and peptidoglycane wall. The biofilm formed by the cells treated with peptides was also observed in the images obtained by transmission electron microscopy (FIG. 7) and it was not observed in the cells treated with human defensin hBD-3 (FIG. 6).

[6] = chemotherapeutic agent alone, 72 h, 3 replicates

Compound | EC50 ([1]; Homo sapiens, MDA-MB-231, 72 h) [µM] | EC50 [1, 6] [µM] | percentage of dead cells (cytotoxicity) (S. aureus [2]) | biofilm formation, scanning electron microscopy (S. aureus [3]) | morphological alterations, scanning electron microscopy (S. aureus [3]) | ultrastructural damage, transmission electron microscopy (S. aureus [5]) | also measured
O=c1[nH]cc(F)c(=O)[nH]1 [5-fluorouracyl] |  | 25.3 ± 4.33 |  |  |  |  | 
N.N.[Cl][Pt][Cl] [cisplatin] |  | 168 ± 53.9 |  |  |  |  | 
TcDef3-pep: 29 amino acid peptide fragment of Tribolium castaneum defensin 3, SEQ ID NO: 2, disclosed in Contreras et al., 2015 (VNHAACAAHCLLKRKRGGYCNKRRICVCR) |  |  | ~55% | biofilm produced | bulges are observed in the bacterial membrane | malformations and bulges in the bacterial membrane | mortality percentage (S. aureus [4]): 9.2%
hBD-3: human defensin hBD-3 (PeptaNova), positive control (GIINTLQKYYCRVRGGRCAVLSCLPKEEQIGKCSTRGRKCCRRKK; ends and bridges not checked; cysteine pairing not given here; UniProt P81534 23-67, looked up) |  |  | around 70% | did not form a biofilm | structural damage and lysis of the membrane | malformations (4) and lysis of the membrane | 

More lines, main results first:

EC50 ([1]; Homo sapiens, MDA-MB-231, 72 h) [µM] | Compound | EC50 [1, 6] [µM] | percentage of dead cells (cytotoxicity) (S. aureus [2]) | biofilm formation, scanning electron microscopy (S. aureus [3]) | morphological alterations, scanning electron microscopy (S. aureus [3]) | ultrastructural damage, transmission electron microscopy (S. aureus [5]) | also measured
0.407 ± 0.033 | COc1cccc2c1C(=O)c1c(O)c3c(c(O)c1C2=O)C[C@@](O)(C(=O)CO)C[C@@H]3O[C@H]1C[C@H](N)[C@H](O)[C@H](C)O1 [doxorubicin] |  |  |  |  |  | 
0.008 ± 0.005 | CC(=O)O[C@H]1C(=O)[C@@]2(C)[C@H]([C@H](OC(=O)c3ccccc3)[C@]3(O)C[C@H](OC(=O)[C@H](O)[C@@H](NC(=O)c4ccccc4)c4ccccc4)C(C)=C1C3(C)C)[C@]1(OC(C)=O)CO[C@@H]1C[C@@H]2O [paclitaxel] |  |  |  |  |  | 
